Experimental data: patent US8580794B2 (AbbVie Inc., priority 2009, dated 2013)

target: GST-Bc1-2 (Homo sapiens, UniProt P10415); experiment: Time Resolved-Fluorescence Resonance Energy Transfer (TR-FRET) Bcl-2 binding assay with F-Bak peptide probe; details: GST-Bcl-2 1 nM, F-Bak probe 100 nM, Tb-anti-GST 1 nM; '<' = below limit of detection; read-out: TR-FRET Bcl-2 Binding Ki
Sequence (P10415 whole entry): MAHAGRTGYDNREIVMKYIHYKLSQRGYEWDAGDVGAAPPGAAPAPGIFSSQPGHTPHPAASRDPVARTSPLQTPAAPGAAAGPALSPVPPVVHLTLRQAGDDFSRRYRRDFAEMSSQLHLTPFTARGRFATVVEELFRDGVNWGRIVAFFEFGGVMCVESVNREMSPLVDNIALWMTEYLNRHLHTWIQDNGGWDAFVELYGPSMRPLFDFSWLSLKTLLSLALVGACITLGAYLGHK

Structure (SMILES) | Ki [nM]
COC1(COc2ccc(S(=O)(=O)NC(=O)c3ccc(N4CCN(CC5=C(c6ccc(Cl)cc6)CC(C)(C)CC5)CC4)cc3Oc3cnc4[nH]ccc4c3)cc2[N+](=O)[O-])CCOCC1 [Example 234, 4-(4-{[2-(4-chlorophenyl)-4,4-dimethylcyclohex-1-en-1-yl]methyl}piperazin-1-yl)-N-({4-[(4-methoxytetrahydro-2H-pyran-4-yl)methoxy]-3-nitrophenyl}sulfonyl)-2-(1H-pyrrolo[2,3-b]pyridin-5-yloxy)benzamide] | 0.115
CC1(C)CCC(CN2CCN(c3ccc(C(=O)NS(=O)(=O)c4ccc(O[C@@H]5CCN(C(CF)CF)C5)c([N+](=O)[O-])c4)c(Oc4cnc5[nH]ccc5c4)c3)CC2)=C(c2ccc(Cl)cc2)C1 [Example 235, 4-(4-{[2-(4-chlorophenyl)-4,4-dimethylcyclohex-1-en-1-yl]methyl}piperazin-1-yl)-N-[(4-{[(3R)-1-(1,3-difluoropropan-2-yl)pyrrolidin-3-yl]oxy}-3-nitrophenyl)sulfonyl]-2-(1H-pyrrolo[2,3-b]pyridin-5-yloxy)benzamide] | 0.023
CC1(C)CCC(CN2CCN(c3ccc(C(=O)NS(=O)(=O)c4ccc(NN5CCN(C6COC6)CC5)c([N+](=O)[O-])c4)c(Oc4cnc5[nH]ccc5c4)c3)CC2)=C(c2ccc(Cl)cc2)C1 [Example 236, 4-(4-{[2-(4-chlorophenyl)-4,4-dimethylcyclohex-1-en-1-yl]methyl}piperazin-1-yl)-N-[(3-nitro-4-{[4-(oxetan-3-yl)piperazin-1-yl]amino}phenyl)sulfonyl]-2-(1H-pyrrolo[2,3-b]pyridin-5-yloxy)benzamide] | 0.033
CC1(C)CCC(CN2CCN(c3ccc(C(=O)NS(=O)(=O)c4ccc(NN5CCN(C6CCOCC6)CC5)c([N+](=O)[O-])c4)c(Oc4cnc5[nH]ccc5c4)c3)CC2)=C(c2ccc(Cl)cc2)C1 [Example 237, 4-(4-{[2-(4-chlorophenyl)-4,4-dimethylcyclohex-1-en-1-yl]methyl}piperazin-1-yl)-N-[(3-nitro-4-{[4-(tetrahydro-2H-pyran-4-yl)piperazin-1-yl]amino}phenyl)sulfonyl]-2-(1H-pyrrolo[2,3-b]pyridin-5-yloxy)benzamide] | 0.024
CC1(C)CCC(CN2CCN(c3ccc(C(=O)NS(=O)(=O)c4ccc(N[C@@H]5CCOC5)c([N+](=O)[O-])c4)c(Oc4cnc5[nH]ccc5c4)c3)CC2)=C(c2ccc(Cl)cc2)C1 [Example 238, 4-(4-{[2-(4-chlorophenyl)-4,4-dimethylcyclohex-1-en-1-yl]methyl}piperazin-1-yl)-N-({3-nitro-4-[(3R)-tetrahydrofuran-3-ylamino]phenyl}sulfonyl)-2-(1H-pyrrolo[2,3-b]pyridin-5-yloxy)benzamide] | < 0.01
CC1(C)CCC(CN2CCN(c3ccc(C(=O)NS(=O)(=O)c4ccc(NCC5CCC(F)(F)CC5)c([N+](=O)[O-])c4)c(Oc4cnc5[nH]ccc5c4)c3)CC2)=C(c2ccc(Cl)cc2)C1 [Example 239, 4-(4-{[2-(4-chlorophenyl)-4,4-dimethylcyclohex-1-en-1-yl]methyl}piperazin-1-yl)-N-[(4-{[(4,4-difluorocyclohexyl)methyl]amino}-3-nitrophenyl)sulfonyl]-2-(1H-pyrrolo[2,3-b]pyridin-5-yloxy)benzamide] | 0.026
CC1(C)CCC(CN2CCN(c3ccc(C(=O)NS(=O)(=O)c4ccc(NC5CCN(C(C)(C)C)CC5)c(S(=O)(=O)C(F)(F)F)c4)c(Oc4cnc5[nH]ccc5c4)c3)CC2)=C(c2ccc(Cl)cc2)C1 [Example 240, N-({4-[(1-tert-butylpiperidin-4-yl)amino]-3-[(trifluoromethyl)sulfonyl]phenyl}sulfonyl)-4-(4-{[2-(4-chlorophenyl)-4,4-dimethylcyclohex-1-en-1-yl]methyl}piperazin-1-yl)-2-(1H-pyrrolo[2,3-b]pyridin-5-yloxy)benzamide] | < 0.01
CC1(C)CCC(CN2CCN(c3ccc(C(=O)NS(=O)(=O)c4ccc(NCC5CN(C6COC6)CCO5)c(S(=O)(=O)C(F)(F)F)c4)c(Oc4cnc5[nH]ccc5c4)c3)CC2)=C(c2ccc(Cl)cc2)C1 (stereo not drawn) [Example 241, 4-(4-{[2-(4-chlorophenyl)-4,4-dimethylcyclohex-1-en-1-yl]methyl}piperazin-1-yl)-N-({4-({[4-(oxetan-3-yl)morpholin-2-yl]methyl}amino)-3-[(trifluoromethyl)sulfonyl]phenyl}sulfonyl)-2-(1H-pyrrolo[2,3-b]pyridin-5-yloxy)benzamide] | < 0.01
CC1(C)CCC(CN2CCN(c3ccc(C(=O)NS(=O)(=O)c4cnc(NCC5(F)CCOCC5)c(Cl)c4)c(Oc4cnc5[nH]ccc5c4)c3)CC2)=C(c2ccc(Cl)cc2)C1 [Example 242, N-[(5-chloro-6-{[(4-fluorotetrahydro-2H-pyran-4-yl)methyl]amino}pyridin-3-yl)sulfonyl]-4-(4-{[2-(4-chlorophenyl)-4,4-dimethylcyclohex-1-en-1-yl]methyl}piperazin-1-yl)-2-(1H-pyrrolo[2,3-b]pyridin-5-yloxy)benzamide] | 0.057
CC1(C)CCC(CN2CCN(c3ccc(C(=O)NS(=O)(=O)c4cnc(NC5CCN(C6CC6)CC5)c(Cl)c4)c(Oc4cnc5[nH]ccc5c4)c3)CC2)=C(c2ccc(Cl)cc2)C1 [Example 243, N-({5-chloro-6-[(1-cyclopropylpiperidin-4-yl)amino]pyridin-3-yl}sulfonyl)-4-(4-{[2-(4-chlorophenyl)-4,4-dimethylcyclohex-1-en-1-yl]methyl}piperazin-1-yl)-2-(1H-pyrrolo[2,3-b]pyridin-5-yloxy)benzamide] | 0.546
CC1(C)CCC(CN2CCN(c3ccc(C(=O)NS(=O)(=O)c4cnc(OC[C@@H]5CN(CC#N)CCO5)c(Cl)c4)c(Oc4cnc5[nH]ccc5c4)c3)CC2)=C(c2ccc(Cl)cc2)C1 [Example 244, N-[(5-chloro-6-{[(2S)-4-(cyanomethyl)morpholin-2-yl]methoxy}pyridin-3-yl)sulfonyl]-4-(4-{[2-(4-chlorophenyl)-4,4-dimethylcyclohex-1-en-1-yl]methyl}piperazin-1-yl)-2-(1H-pyrrolo[2,3-b]pyridin-5-yloxy)benzamide] | 0.281
CN(C)CC(=O)N1CCO[C@H](COc2ncc(S(=O)(=O)NC(=O)c3ccc(N4CCN(CC5=C(c6ccc(Cl)cc6)CC(C)(C)CC5)CC4)cc3Oc3cnc4[nH]ccc4c3)cc2Cl)C1 [Example 245, N-[(5-chloro-6-{[(2S)-4-(N,N-dimethylglycyl)morpholin-2-yl]methoxy}pyridin-3-yl)sulfonyl]-4-(4-{[2-(4-chlorophenyl)-4,4-dimethylcyclohex-1-en-1-yl]methyl}piperazin-1-yl)-2-(1H-pyrrolo[2,3-b]pyridin-5-yloxy)benzamide] | 0.015
CC1(C)CCC(CN2CCN(c3ccc(C(=O)NS(=O)(=O)c4cnc(OC[C@H]5CN(CC#N)CCO5)c(Cl)c4)c(Oc4cnc5[nH]ccc5c4)c3)CC2)=C(c2ccc(Cl)cc2)C1 [Example 246, N-[(5-chloro-6-{[(2R)-4-(cyanomethyl)morpholin-2-yl]methoxy}pyridin-3-yl)sulfonyl]-4-(4-{[2-(4-chlorophenyl)-4,4-dimethylcyclohex-1-en-1-yl]methyl}piperazin-1-yl)-2-(1H-pyrrolo[2,3-b]pyridin-5-yloxy)benzamide] | 0.144
CN(C)CC(=O)N1CCO[C@@H](COc2ncc(S(=O)(=O)NC(=O)c3ccc(N4CCN(CC5=C(c6ccc(Cl)cc6)CC(C)(C)CC5)CC4)cc3Oc3cnc4[nH]ccc4c3)cc2Cl)C1 [Example 247, N-[(5-chloro-6-{[(2R)-4-(N,N-dimethylglycyl)morpholin-2-yl]methoxy}pyridin-3-yl)sulfonyl]-4-(4-{[2-(4-chlorophenyl)-4,4-dimethylcyclohex-1-en-1-yl]methyl}piperazin-1-yl)-2-(1H-pyrrolo[2,3-b]pyridin-5-yloxy)benzamide] | 0.019
CC1(C)CCC(CN2CCN(c3ccc(C(=O)NS(=O)(=O)c4cnc(OCC5(F)CCOCC5)c(F)c4)c(Oc4cnc5[nH]ccc5c4)c3)CC2)=C(c2ccc(Cl)cc2)C1 [Example 248, 4-(4-{[2-(4-chlorophenyl)-4,4-dimethylcyclohex-1-en-1-yl]methyl}piperazin-1-yl)-N-({5-fluoro-6-[(4-fluorotetrahydro-2H-pyran-4-yl)methoxy]pyridin-3-yl}sulfonyl)-2-(1H-pyrrolo[2,3-b]pyridin-5-yloxy)benzamide] | 0.029
CC1(C)CCC(CN2CCN(c3ccc(C(=O)NS(=O)(=O)c4cnc(OCC(C)(CO)CO)c(Cl)c4)c(Oc4cnc5[nH]ccc5c4)c3)CC2)=C(c2ccc(Cl)cc2)C1 [Example 250, N-({5-chloro-6-[3-hydroxy-2-(hydroxymethyl)-2-methylpropoxy]pyridin-3-yl}sulfonyl)-4-(4-{[2-(4-chlorophenyl)-4,4-dimethylcyclohex-1-en-1-yl]methyl}piperazin-1-yl)-2-(1H-pyrrolo[2,3-b]pyridin-5-yloxy)benzamide] | 0.412
CC1(C)CCC(CN2CCN(c3ccc(C(=O)NS(=O)(=O)c4ccc(OCC5(F)CCOCC5)nc4)c(Oc4cnc5[nH]ccc5c4)c3)CC2)=C(c2ccc(Cl)cc2)C1 [Example 251, 4-(4-{[2-(4-chlorophenyl)-4,4-dimethylcyclohex-1-en-1-yl]methyl}piperazin-1-yl)-N-({6-[(4-fluorotetrahydro-2H-pyran-4-yl)methoxy]pyridin-3-yl}sulfonyl)-2-(1H-pyrrolo[2,3-b]pyridin-5-yloxy)benzamide] | 0.571
CC1(C)CCC(CN2CCN(c3ccc(C(=O)NS(=O)(=O)c4ccc(NCC5CN(C(CF)CF)CCO5)c([N+](=O)[O-])c4)c(Oc4cnc5[nH]ccc5c4)c3)CC2)=C(c2ccc(Cl)cc2)C1 (stereo not drawn) [Example 252, 4-(4-{[2-(4-chlorophenyl)-4,4-dimethylcyclohex-1-en-1-yl]methyl}piperazin-1-yl)-N-{[4-({[4-(1,3-difluoropropan-2-yl)morpholin-2-yl]methyl}amino)-3-nitrophenyl]sulfonyl}-2-(1H-pyrrolo[2,3-b]pyridin-5-yloxy)benzamide] | < 0.01
